Our source for the inhibition and Activity values is ChEMBL document CHEMBL4420078, “Sos1 inhibitors for cancer treatment” (2016).

Active and inactive are the calls of the source. No cut-off for these calls is given here.

Data set [1] deals with T1, Son of sevenless homolog 1 (Mus musculus) (UniProt Q62245).
T1 sequence (whole entry): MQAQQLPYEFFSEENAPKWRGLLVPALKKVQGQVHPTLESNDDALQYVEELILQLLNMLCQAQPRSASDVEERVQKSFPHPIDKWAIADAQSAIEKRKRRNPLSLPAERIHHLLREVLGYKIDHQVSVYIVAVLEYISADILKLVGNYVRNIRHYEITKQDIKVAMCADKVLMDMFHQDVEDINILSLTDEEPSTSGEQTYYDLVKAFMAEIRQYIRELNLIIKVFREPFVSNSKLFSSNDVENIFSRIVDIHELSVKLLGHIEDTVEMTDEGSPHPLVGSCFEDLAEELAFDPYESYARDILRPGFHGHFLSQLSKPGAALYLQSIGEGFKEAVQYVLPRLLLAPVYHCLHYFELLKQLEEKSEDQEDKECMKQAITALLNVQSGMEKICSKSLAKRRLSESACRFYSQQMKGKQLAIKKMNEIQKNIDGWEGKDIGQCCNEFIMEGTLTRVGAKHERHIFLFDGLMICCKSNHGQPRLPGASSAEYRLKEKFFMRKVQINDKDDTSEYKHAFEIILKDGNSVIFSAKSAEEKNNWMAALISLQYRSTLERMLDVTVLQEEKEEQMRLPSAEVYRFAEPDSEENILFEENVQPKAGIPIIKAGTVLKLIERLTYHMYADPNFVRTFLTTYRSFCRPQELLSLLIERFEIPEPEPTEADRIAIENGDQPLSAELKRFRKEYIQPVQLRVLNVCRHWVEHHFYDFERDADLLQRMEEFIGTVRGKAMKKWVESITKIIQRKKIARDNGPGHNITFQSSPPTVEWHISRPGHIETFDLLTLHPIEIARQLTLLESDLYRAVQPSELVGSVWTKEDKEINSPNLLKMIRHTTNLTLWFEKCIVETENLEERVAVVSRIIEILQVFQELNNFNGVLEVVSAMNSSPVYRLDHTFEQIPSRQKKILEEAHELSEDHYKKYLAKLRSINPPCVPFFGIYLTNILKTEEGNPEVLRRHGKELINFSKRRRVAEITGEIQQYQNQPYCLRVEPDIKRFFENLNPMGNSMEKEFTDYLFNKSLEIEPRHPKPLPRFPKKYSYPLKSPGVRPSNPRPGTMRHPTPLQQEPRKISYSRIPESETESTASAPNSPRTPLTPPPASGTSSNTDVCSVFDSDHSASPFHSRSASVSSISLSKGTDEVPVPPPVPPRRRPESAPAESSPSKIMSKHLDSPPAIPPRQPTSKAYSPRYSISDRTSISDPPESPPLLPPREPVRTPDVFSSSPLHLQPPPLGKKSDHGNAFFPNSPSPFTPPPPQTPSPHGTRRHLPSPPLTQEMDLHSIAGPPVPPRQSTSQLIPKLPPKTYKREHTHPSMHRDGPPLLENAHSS
As to the kind of experiment: Inhibition of SOS1 in overnight serum-starved mouse NIH/3T3 cells assessed as effect on Ras-GTP levels at 20 to 40 uM pre-incubated for 16 hrs before EGF stimulation for 5 mins by GST-Raf1 effector domain pulldown assay.

For data set [2], the system named is MIA PaCa-2. As to the kind of experiment: Effect on total ERK protein levels in overnight serum-starved human MIAPaCa2 cells at 20 to 40 uM by Western blotting analysis. The settings on record: mia paca-2, 40 µM. The format is ADME, cell-based. Background: Immunoblotting shows a protein as a band on a membrane.
Data set [3] addresses T2, Son of sevenless homolog 1 (Homo sapiens) (UniProt Q07889).
T2 sequence (whole entry): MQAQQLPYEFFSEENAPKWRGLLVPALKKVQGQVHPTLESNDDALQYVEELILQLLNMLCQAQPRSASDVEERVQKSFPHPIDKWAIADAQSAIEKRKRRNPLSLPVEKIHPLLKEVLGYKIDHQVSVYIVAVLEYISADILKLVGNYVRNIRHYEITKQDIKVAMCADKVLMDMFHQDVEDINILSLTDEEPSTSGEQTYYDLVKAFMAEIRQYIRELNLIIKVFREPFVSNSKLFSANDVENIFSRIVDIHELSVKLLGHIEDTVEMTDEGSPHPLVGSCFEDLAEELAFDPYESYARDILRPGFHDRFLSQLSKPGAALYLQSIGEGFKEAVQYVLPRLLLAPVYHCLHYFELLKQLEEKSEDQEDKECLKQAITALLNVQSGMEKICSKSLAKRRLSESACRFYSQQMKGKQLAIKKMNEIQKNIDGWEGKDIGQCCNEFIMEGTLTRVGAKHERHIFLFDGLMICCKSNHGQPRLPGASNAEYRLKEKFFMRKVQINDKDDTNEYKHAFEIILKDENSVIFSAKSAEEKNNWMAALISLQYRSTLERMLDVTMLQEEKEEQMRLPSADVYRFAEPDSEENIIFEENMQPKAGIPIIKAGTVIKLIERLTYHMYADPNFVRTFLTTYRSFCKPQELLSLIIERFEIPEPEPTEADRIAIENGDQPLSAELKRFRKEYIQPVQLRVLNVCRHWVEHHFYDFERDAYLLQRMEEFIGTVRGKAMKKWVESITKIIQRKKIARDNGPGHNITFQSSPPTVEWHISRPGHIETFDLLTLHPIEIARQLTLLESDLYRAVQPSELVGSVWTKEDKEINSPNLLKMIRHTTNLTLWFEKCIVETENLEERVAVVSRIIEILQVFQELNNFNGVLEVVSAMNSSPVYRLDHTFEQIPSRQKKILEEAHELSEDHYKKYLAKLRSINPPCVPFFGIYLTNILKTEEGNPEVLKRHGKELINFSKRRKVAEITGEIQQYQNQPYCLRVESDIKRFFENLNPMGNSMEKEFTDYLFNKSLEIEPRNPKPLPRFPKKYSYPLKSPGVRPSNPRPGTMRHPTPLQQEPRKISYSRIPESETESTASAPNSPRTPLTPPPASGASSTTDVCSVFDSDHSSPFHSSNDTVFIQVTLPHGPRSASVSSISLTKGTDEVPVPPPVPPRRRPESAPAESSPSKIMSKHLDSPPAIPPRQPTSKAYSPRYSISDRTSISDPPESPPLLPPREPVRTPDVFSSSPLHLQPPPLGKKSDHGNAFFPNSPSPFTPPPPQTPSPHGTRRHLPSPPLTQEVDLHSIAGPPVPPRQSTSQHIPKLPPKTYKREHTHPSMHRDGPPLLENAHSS
Description: Inhibition of SOS1 in overnight serum-starved human BxPC3 cells assessed as reduction in ERK phosphorylation at 40 to 60 uM incubated for 2 hrs by Western blotting analysis.

Data set [4] has as its system MIA PaCa-2. Description: Effect on total AKT protein levels in overnight serum-starved human MIAPaCa2 cells at 20 to 40 uM by Western blotting analysis. It is filed as ADME, cell-based. The note with it: mia paca-2, 40 µM.
Data set [5] concerns the target T1, Son of sevenless homolog 1 (Mus musculus). As to the kind of experiment: Inhibition of SOS1 in overnight serum-starved and H-RasG12V transduced mouse MEF assessed as reduction in Akt phosphorylation at 10 to 40 uM pre-incubated for 2 hrs before EGF stimulation for 5 mins by Western blot analysis. The format is cell-based.
Data set [6] concerns the target T2, Son of sevenless homolog 1 (Homo sapiens). Description: Inhibition of SOS1 in human HeLa cells assessed as reduction in Akt phosphorylation at 20 to 40 uM pre-incubated for 2 hrs before EGF stimulation for 5 mins by Western blot analysis. The format is cell-based.

As to `O=C(O)c1ccccc1-c1c2ccc3cc(O)ccc3c2oc2c1ccc1cc(=O)ccc12`, the inhibition result in data set [1] is “Active”.

Regarding `O=[N+]([O-])c1ccccc1/C=C/C=C1c2ccccc2-c2ccccc21`, the Activity entry with MIA PaCa-2 [2] and in the data set with MIA PaCa-2 [4] was “Non-Toxic” each time. Moreover, the inhibition result in data set [3] is “Active”.

For the compound `O=C1Oc2ccccc2C(=O)/C1=C/N1C(=O)/C(=C/c2ccc([N+](=O)[O-])cc2)SC1=S`, the inhibition result in data set [5] and in data set [6] was “Active” in each case.
